Source: US11420984B2, “Arginase inhibitors and methods of use thereof” (AstraZeneca AB, priority 2018, dated 2022)
pIC50: −log10 of the molar value.

Legend:
[1] = Bioavailability / pharmacokinetic study in male rats (IV and PO); format: in vivo, rat; conditions: plasma, pro-drug itself, observed when dosed as pro-drug, male rat; for clearance / Vd: IV 2 mg/kg; for Vd: read-out: Vdss; for AUC / Cmax / Tmax: PO 5 mg/kg; for bioavailability: PO 5 mg/kg vs IV 2 mg/kg
Experimental: Example 8 was formulated in 0.9% w/v saline pH 4 (adjusted with 1M HCl) for IV dosing. The formulation was dosed at 2 mg/kg by femoral catheter to two male rats each (170-250 g). Jugular vein catheter serial blood samples were taken at 0.033, 0.083, 0.167, 0.5, 1, 2, 4, 8, and 24 hrs post-dose. For PO dosing, Example 8 was formulated in deionized water pH 4 (adjusted with 1M HCl) and dosed at 5 mg/kg by oral gavage to two male rats each (170-250 g). Serial blood samples were taken by jugular vein catheter at 0.25, 0.5, 1, 1.5, 2, 3, 4, 8, and 24 hrs post dose. Plasma samples were generated from blood using low speed centrifugation. […] The samples and standards were extracted by precipitation with two volumes of acetonitrile followed by centrifugation. […] Where appropriate, measured and not nominal doses were used to calculate bioavalability.

Human Arginase 1 = Human Arginase 1 (Homo sapiens (Human), UniProt P05089); assay: Human Arginase 1 enzyme inhibition (thioarginine/DTNB absorbance assay); format: biochemical; conditions: recombinant enzyme 5 nM, 0.5 mM thioarginine premix, 60 min
Human Arginase 1, sequence (P05089 whole entry): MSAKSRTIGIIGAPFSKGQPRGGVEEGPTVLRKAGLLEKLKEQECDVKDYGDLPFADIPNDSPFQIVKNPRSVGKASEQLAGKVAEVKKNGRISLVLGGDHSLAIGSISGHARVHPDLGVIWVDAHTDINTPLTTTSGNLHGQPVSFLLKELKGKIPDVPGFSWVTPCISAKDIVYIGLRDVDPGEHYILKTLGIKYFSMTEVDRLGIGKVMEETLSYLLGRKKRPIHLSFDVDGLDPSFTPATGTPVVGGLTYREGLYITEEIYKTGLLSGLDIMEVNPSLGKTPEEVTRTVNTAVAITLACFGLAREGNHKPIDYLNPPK
Experimental: (§1) The thiol group was detected with Ellman's reagent, 5,5′-dithiobis(2-nitrobenzoic acid) (DTNB). DTNB reacts with the thiol to give the mixed disulfide and 2-nitro-5-thiobenzoic acid (TNB) which is quantified by the absorbance of the anion (TNB^2−) at 412 nm.
(§2) The assays were run in clear 384 well plates (Greiner cat no: 781101). […] Two pre-mixes were prepared from reagents thawed immediately before addition to assay plates. Pre-mix one comprised human Arginase 1 or human Arginase 2, at a final concentration of 5 nM and 0.5 mM DTNB in assay buffer, 45 mM HEPES pH7.5, brij 35, 0.045% (w/v) and 100 μM MnCl2. Pre-mix two comprised freshly thawed 0.5 mM thioarginine in assay buffer.
(§3) Assay plates were centrifuged prior to reading absorbance at 412 nm in a Pherastar multi-mode plate reader to collect data at time point 0 (T0). The plates were incubated at room temperature for 60 min prior to reading again to collect data at time point 1 (T1). Data is derived by subtracting the A412 signal measured at T0 (time point 0) from that measured at T1 (time point 1). The data was transformed to % effect using the equation: Compound % effect=100*[(X−min)/(max−min)], where X represents the normalized value for the compound based on the Min (vehicle) and Max (reference compound) inhibition control.

Human Arginase 2 = Human Arginase 2 (Homo sapiens (Human), UniProt P78540); assay: Human Arginase 2 enzyme inhibition (thioarginine/DTNB absorbance assay); format: biochemical; conditions: recombinant enzyme 5 nM, 0.5 mM thioarginine premix, 60 min
Human Arginase 2, sequence (P78540 23-354): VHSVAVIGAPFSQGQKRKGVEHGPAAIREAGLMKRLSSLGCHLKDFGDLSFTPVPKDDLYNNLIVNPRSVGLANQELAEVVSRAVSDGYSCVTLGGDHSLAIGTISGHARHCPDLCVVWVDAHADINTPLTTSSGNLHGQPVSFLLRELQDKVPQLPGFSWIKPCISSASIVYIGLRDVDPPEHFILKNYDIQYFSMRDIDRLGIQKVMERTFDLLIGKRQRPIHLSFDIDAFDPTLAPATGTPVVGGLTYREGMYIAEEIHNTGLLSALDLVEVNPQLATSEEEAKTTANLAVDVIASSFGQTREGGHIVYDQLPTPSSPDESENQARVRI
Experimental: as §1, §2, §3

Q: Which clearance [1] does the source give for CC(C)[C@H](N)C(=O)N[C@H]1CN[C@@](CCCCB(O)O)(C(=O)O)C1 [Example 9, (2R,4R)-4-((S)-2-amino-3-methylbutanamido)-2-(4-boronobutyl)pyrrolidine-2-carboxylic acid] here?
A: 33.3 mL/min/kg

Q: What about the Vd [1] of the same molecule?
A: 0.2 L/kg

Q: And the AUC [1]?
A: 0.24 µM·h

Q: What about the Cmax [1] of the same molecule?
A: 600 nM

Q: What about the Tmax [1] of the same molecule?
A: 15 min

Q: What about the bioavailability [1] of the same molecule?
A: 3.2%

Q: And the pIC50 (Human Arginase 1)?
A: 6.49

Q: And the pIC50 (Human Arginase 2)?
A: 6.48

Q: Which results are given for NCC(=O)N[C@H]1CN[C@@](CCCCB(O)O)(C(=O)O)C1 [Example 13, (2R,4R)-4-(2-aminoacetamido)-2-(4-boronobutyl)pyrrolidine-2-carboxylic acid]?
A: clearance [1]: 17.9 mL/min/kg; Vd [1]: 0.2 L/kg; AUC [1]: 0.62 µM·h; Cmax [1]: 460 nM; Tmax [1]: 30 min; bioavailability [1]: 3.8%; pIC50 (Human Arginase 1): 6.37; pIC50 (Human Arginase 2): 6.20

Q: With CC[C@H](C)[C@H](N)C(=O)N[C@H]1CN[C@@](CCCCB(O)O)(C(=O)O)C1 [Example 15, (2R,4R)-4-((2S,3S)-2-amino-3-methylpentanamido)-2-(4-boronobutyl)pyrrolidine-2-carboxylic acid] as the molecule, how does the clearance [1] read?
A: 104 mL/min/kg

Q: What about the Vd [1] of the same molecule?
A: 0.46 L/kg

Q: And the pIC50 (Human Arginase 1)?
A: 6.51

Q: What about the pIC50 (Human Arginase 2) of the same molecule?
A: 6.59

Q: Which clearance [1] does the source give for CC(C)C[C@H](N)C(=O)N[C@H]1CN[C@@](CCCCB(O)O)(C(=O)O)C1 [Example 16, (2R,4R)-4-((S)-2-amino-4-methylpentanamido)-2-(4-boronobutyl)pyrrolidine-2-carboxylic acid] here?
A: 585 mL/min/kg

Q: And the Vd [1]?
A: 7.41 L/kg

Q: And the pIC50 (Human Arginase 1)?
A: 6.51

Q: And the pIC50 (Human Arginase 2)?
A: 6.51

Q: What does the source list for N[C@@H](CO)C(=O)N[C@H]1CN[C@@](CCCCB(O)O)(C(=O)O)C1 [Example 17, (2R,4R)-4-((S)-2-amino-3-hydroxypropanamido)-2-(4-boronobutyl)pyrrolidine-2-carboxylic acid]?
A: clearance [1]: 40.5 mL/min/kg; Vd [1]: 0.36 L/kg; AUC [1]: 0.38 µM·h; Cmax [1]: 430 nM; Tmax [1]: 22.8 min; bioavailability [1]: 5.8%; pIC50 (Human Arginase 1): 6.70; pIC50 (Human Arginase 2): 6.64

Q: Which clearance [1] does the source give for COC[C@H](N)C(=O)N[C@H]1CN[C@@](CCCCB(O)O)(C(=O)O)C1 [Example 18, (2R,4R)-4-((S)-2-amino-3-methoxypropanamido)-2-(4-boronobutyl)pyrrolidine-2-carboxylic acid] here?
A: 317 mL/min/kg

Q: What about the Vd [1] of the same molecule?
A: 0.64 L/kg

Q: And the pIC50 (Human Arginase 1)?
A: 6.49

Q: And the pIC50 (Human Arginase 2)?
A: 6.42

Q: For CC(C)(O)[C@H](N)C(=O)N[C@H]1CN[C@@](CCCCB(O)O)(C(=O)O)C1 [Example 20, (2R,4R)-4-[[(2S)-2-amino-3-hydroxy-3-methyl-butanoyl]amino]-2-(4-boronobutyl)pyrrolidine-2-carboxylic acid], which clearance [1] is on record?
A: 8.9 mL/min/kg

Q: And the Vd [1]?
A: 0.29 L/kg

Q: And the AUC [1]?
A: 6.9 µM·h

Q: And the Cmax [1]?
A: 1800 nM

Q: What about the Tmax [1] of the same molecule?
A: 60 min

Q: And the bioavailability [1]?
A: 25.5%

Q: And the pIC50 (Human Arginase 1)?
A: 6.47

Q: And the pIC50 (Human Arginase 2)?
A: 6.28

Q: What does the source list for CC(C)[C@H](N)C(=O)N(C)[C@H]1CN[C@@](CCCCB(O)O)(C(=O)O)C1 [Example 29, (2R,4R)-4-[[(2S)-2-amino-3-methyl-butanoyl]-methyl-amino]-2-(4-boronobutyl)pyrrolidine-2-carboxylic acid]?
A: pIC50 (Human Arginase 1): 5.28; pIC50 (Human Arginase 2): 5.03

Q: With CC(C)[C@H](N)C(=O)N(C)[C@H]1CN[C@](CCCCB(O)O)(C(=O)O)C1 [Example 30, (2S,4R)-4-[[(2S)-2-amino-3-methyl-butanoyl]-methyl-amino]-2-(4-boronobutyl)pyrrolidine-2-carboxylic acid] as the molecule, how does the pIC50 (Human Arginase 1) read?
A: 5.87

Q: What about the pIC50 (Human Arginase 2) of the same molecule?
A: 5.62
